Test results taken from US10801071B2, “TGF(β)-MIR200-MIG6 pathway and its use in the treatment of cancer as an indicator of resistance to EGFR inhibitors” (THE JOHNS HOPKINS UNIVERSITY, priority 2014, dated 2020).

Tests used:
[1] = tested on: SCC-S, H358 and H292 erlotinib-sensitive epithelial cell lines; test: TGFβ-induced EMT, immunoblot of EMT markers and kinases; type: cell-based, human
Description: FIGS. 2A-2F depict that increased production of TGFβ induces an EMT-associated kinase switch which promotes erlotinib-resistance of tumor cells. A. Protein lysates were extracted from indicated cell lines Immunoblot analysis was performed with antibodies against E-cadherin, vimentin and β-actin. B. Tumor cell supernatants of 25 cancer cell lines shown in A were collected and differential levels of TGFβ production were analyzed by ELISA. C. […] Cells were collected at different time points and Immunoblot analysis was performed with indicated antibodies. […] Values were set at 100% for untreated controls. […]
Antibodies and immunoblot analysis. […] Protein concentrations were determined by the BCA method and lysates diluted in SDS sample buffer (Bio-Rad, Hercules, Calif.) prior to SDS-PAGE. […] ImageJ (ver 1.46) software was used to quantify immunoblot signals on exposed films.
Increased production of TGFβ induces an EMT-associated kinase switch that promotes erlotinib-resistance of tumor cells. […] To test whether TGFβ can promote this kinase switch, levels of phospho IGFR, PDGFR, FGFR and FAK kinases were assessed in response to treatment of erlotinib-sensitive cells (H358, H292 and SCC-S) with TGFβ1 for 21 days.

[2] = tested on: miR200 family members (200a, 200b, 200c and 205); test: Real-time PCR of miR200 family after exposure to TGFβ; type: cell-based, human; conditions: SCC-S, H358 and H292 cells, exposure for 21 days
Description: RNA was extracted and expression levels of miR200a, miR200b, miR200c and miR205 were quantified by real-time PCR. B. RNA was extracted from four sensitive/resistant cancer cell lines pairs. Levels of miR200a, miR200b, miR200c and miR205 were measured and relative expression is presented as average fold change of each miRNA in erlotinib-sensitive cell lines relatively to that in resistant cells, which was given a value 1. […] Relative quantification of miRNA expression was performed by using RNU6b as an internal control. The results are presented as expression average of each miRNA in erlotinib-sensitive cell lines relatively to that in erlotinib-resistant cells.
(§1) Quantitative real-time PCR for miRNA. RNA from cultured cells was extracted using the mirVana™ Kit (Ambion, Austin, Tex.). Total RNA from fresh frozen tumors was isolated using the Trizol reagent (Invitrogen, Carlsbad, Calif.). Specific quantitative real-time PCR was carried out using TaqMan MicroRNA Assays for miR200a, miR200b, miR200c, miR205 and control RNU6b (Applied Biosystems, Foster City, Calif.) on a 7900HT detector (Applied Biosystems, Foster City, Calif.).
We next examined changes in miR200 levels in erlotinib-sensitive (SCC-S) and erlotinib-resistant (SCC-R) isogenic H&N cell lines.

[3] = tested on: AKT phosphorylation and Mig6 expression; test: Immunoblot analysis of AKT phosphorylation and Mig6 after TGFβ blockade; type: cell-based, human; conditions: H1703 and JHU028 cells, TGFβ (2 ng/ml) plus SB-431542 (10 μM) for 7 days
Description: (§2) Two erlotinib-resistant cell lines (JHU028 and H1703) were treated with TGFβ (2 ng/ml) alone or in combination with SB-431542 (10 μM) for 7 days. A. Cell lysates were collected and subjected to immunoblot analysis with indicated antibodies. B. Levels of miR200c and miR205 were measured and relative expression is presented as ΔΔCt. C. […] Cell viability was assayed and values were set at 100% for untreated controls.
(§3) Antibodies and immunoblot analysis. Pelleted cells were lysed on ice by adding RIPA lysis buffer (Thermo Scientific, Rockford, Ill.) supplemented with protease and phosphatase inhibitors (Roche, Basel, Switzerland). Protein concentrations were determined by the BCA method and lysates diluted in SDS sample buffer (Bio-Rad, Hercules, Calif.) prior to SDS-PAGE. Anti-Mig6 antibody was a gift from Dr. Ferby (Nature medicine. 2006; 12:568-73). β-actin was obtained from Abcam (Cambridge, Mass.). All other antibodies were obtained from Cell Signaling (Beverly, Mass.). Secondary horseradish peroxidase (HRP)-conjugated antibodies were from KPL (Gaithersburg, Md.) and signals developed using West-Pico chemiluminescence substrate (Thermo Scientific). ImageJ (ver 1.46) software was used to quantify immunoblot signals on exposed films.
Autocrine or paracrine TGF3 signaling is required for the maintenance of the mesenchymal state. […]

miR200c and miR205 = test: Quantitative real-time PCR for miR200c and miR205 after TGFβ blockade; type: cell-based, human; conditions: H1703 and JHU028 cells, TGFβ (2 ng/ml) plus SB-431542 (10 μM) for 7 days
Description: as §2, §1
(§4) Autocrine or paracrine TGF3 signaling is required for the maintenance of the mesenchymal state. Blockage of this signaling can inhibit or reverse EMT by upregulating miR200 and subsequently downregulating ZEB1/2 (28-31). As a corollary to this observation, over-expression of miR-200c restores the sensitivity of resistant NSCLC cells to the anti-EGFR antibody cetuximab. […]

[4] = tested on: JHU028 and H1703 erlotinib-resistant cell lines; test: Cell viability assay, erlotinib sensitivity after TGFβ blockade; type: cell-based, human; conditions: TGFβ plus inhibitor (SB-431542 10 μM or TGFβ RII/Fc 20 ng/ml) 7 days, then 1 μM erlotinib 72 hours
Description: as §2
Cell viability assay. Relative cell viability was determined using an Alamar Blue assay as outlined by the manufacturer (AbDSerotec, Raleigh, N.C.). New media containing 1/10 volume of Alamar Blue reagent was added to the wells and cells were incubated at 37° C. for 1 hour. Fluorescence (545 nm excitation, 590 nm emission wavelengths) was measured using a SpectraMax Plus384 fluorometer (Sunnyvale, Calif.). Cell viability was calculated relative to an untreated culture of cells incubated in parallel.
as §4

[5] = tested on: directly xenografted human NSCLC tumors; test: Erlotinib response of directly xenografted primary human tumors in nude mice; type: in vivo; conditions: lung tumors CTG-0167, CTG-0502, CTG-0199 and CTG-0157 with low EGFR and Mig6 expression, Erlotinib 35 mg/kg
From the text: Xenograft generation. […] The animals were maintained in accordance to guidelines of the American Association of Laboratory Animal Care and the research protocol was approved by the Johns Hopkins University Animal Use and Care Committee.
We obtained 18 human NSCLCs, and 27 pancreatic tumors that were directly xenografted into nude mice. No erlotinib-sensitizing mutations in EGFR were detected in any of these tumors and there was no correlation of KRAS mutation with erlotinib response. For all models tested, miR200 levels were measured by quantitative RT-PCR and mRNA levels of Mig6 and EGFR were determined by Affymetrix expression array. […] Supporting this observation, an inverse correlation between miR200c and Mig6 expression levels was noted across the pancreatic models (data not shown). […] Unlike the limited predictive ability of the Mig6/EGFR ratio in such tumors with low EGFR expression, the Mig6(mRNA)/miR200c ratio was still able to correctly identify three out of four of these lung tumors with low EGFR mRNA as erlotinib-resistant. Therefore, the ratio of Mig6 to miR200 was a reliable predictive biomarker of the primary tumors response to EGFR TKIs regardless of their EGFR status.

Mig6 = test: Immunoblot analysis of Mig6 after inhibitor exposure in parental and TGFβ-induced H358 cells; type: cell-based, human; conditions: 24 hours exposure
Description: A. Protein lysates were extracted from indicated cell lines Immunoblot analysis was performed with antibodies against E-cadherin, vimentin and β-actin. […] C. […] Cells were collected at different time points and Immunoblot analysis was performed with indicated antibodies. […] Values were set at 100% for untreated controls. […] F. Protein lysates were extracted from H358 cells treated with TGFβ1 or control vehicle for 21 days and immunoblot analysis was performed with antibodies against indicated RTKs. β-actin was used as a loading control.
as §3, with “films. […]” for “films.”

## TGFβ
[1]; time course 1-21 days, TGF-β1 or TGF-β3, SCC-S, H358 and H292 cells
  EMT markers (loss of E-cadherin and upregulation of vimentin): complete EMT by day 14
[2]
  expression of the miR200 family members (200a, 200b, 200c and 205): significantly reduced

## NC(=O)c1ccc(-c2nc(-c3ccc4c(c3)OCO4)c(-c3ccccn3)[nH]2)cc1 [SB-431542]
[3]
  AKT phosphorylation: downregulation
  Mig6 expression: downregulation
miR200c and miR205
  miR200c levels: significant increase
  miR205 levels: significant increase
[4]
  sensitivity of tumor cells to erlotinib: increased the sensitivity of tumor cells to erlotinib

## C#Cc1cccc(Nc2ncnc3cc(OCCOC)c(OCCOC)cc23)c1 [erlotinib]
[5]
  erlotinib response of lung tumor xenografts: erlotinib-resistant
Mig6
  basal expression of Mig6: reduced basal expression of Mig6

## TGFβ1: TGFβ isoform used to treat erlotinib-sensitive cells for 21 days
[1]; H358, H292 and SCC-S cells, TGFβ1 for 21 days, compared to untreated counterparts
  levels of phospho IGFR, PDGFR, FGFR and FAK kinases: significantly greater activity

## N#CC(=C(/N)Sc1ccccc1N)/C(C#N)=C(\N)Sc1ccccc1N [U0126]
Mig6
  basal expression of Mig6: reduced basal expression of Mig6
